Measured values: patent US20190175507A1, “COMPOSITIONS FOR ORAL ADMINISTRATION OF ACTIVE AGENTS” (Tamarisk Technologies Group LLC, priority 2016, published 2019)

Test: Pharmacokinetics of resveratrol-containing particles in orally dosed Sprague-Dawley rats
Format: in vivo
Settings: rat, plasma, 20 mg/kg
Procedure: Parameters were estimated using Watson pharmacokinetic software 7.4.2 (Thermo Electron Corporation) using a non-compartmental approach consistent with the various routes of administration. All parameters were generated from […] individual animal concentrations in plasma. Parameters were estimated using nominal sampling times to be relative to the start of each dose administration (within an acceptable tolerance limit). As no dose formulation samples were analyzed, the nominal calculated dose for active ingredient (20 mg/kg, as per the study protocol, was used for dose-normalization purposes). The area under the test item concentration versus time curve (AUC) was calculated using the linear-log linear trapezoidal method. AUC was not calculated for PK profiles with less than 3 consecutive quantifiable concentrations of test article at separate time points. When practical, the terminal elimination phase of each concentration versus time curve was identified using at least the final three observed concentration values. The slope of the terminal elimination phase was determined using linear regression on the unweighted concentration data. […] The parameters described below were reported to 3 significant figures. Animals were fasted overnight, food was returned 4 hours post dosing. […] Aggregated data is summarized for individual animals in Table 4, below.

concentration at 0.5 h (oral): 78.4 ng/mL | concentration at 1 h (oral): 29.3 ng/mL | concentration at 2 h (oral): 47.2 ng/mL | Cmax (po): 82.4 ng/mL | AUC (po, read-out: AUC(0-x)): 82.8 ng·h/mL
Structure (SMILES): Oc1ccc(C=Cc2cc(O)cc(O)c2)cc1 [Unencapsulated Resveratrol, Resveratrol]
